Experimental data reported in PMC5399792 (Nucleic Acids Research, 2017).
Values joined by “and” are separate entries in the source; they are usually repeats but may differ in a detail not shown here. Equal values may be shown once. Read-outs that look alike come from different tables or passages of the source.

Columns and labels:
influenza B polymerase = assay: Fluorescence anisotropy/polarization protein-RNA binding; set-up: species or system influenza B/Memphis/13/03; settings: for dissociation constant, polymerase + RNA (in words): each RNA separately
Experimental: Fluorescence spectroscopy was used to quantify protein–RNA interactions, employing either a plate reader or cuvette format. Using the cuvette, protein was successively added to FAM-Ex-5-labelled RNA (if not indicated otherwise) in binding buffer (50 mM HEPES/NaOH, 0.15 M NaCl, 10% (v/v) glycerol, 2 mM Tris(2-carboxyethyl)phosphine (TCEP), pH 7.4) at the concentrations indicated. After attaining equilibrium, total fluorescence intensity and fluorescence anisotropy were measured at T = 24°C with a fluorescence spectrometer (Photon Technology International) equipped with polarizers with excitation and emission wavelengths set to 495 and 515 nm, respectively. Total fluorescence intensity was corrected for the volume change due to addition of protein and the observed fluorescence anisotropy corrected for the change in fluorescence intensity according to Equation (1) ([17]): (1) where fb represents the fractional concentration of bound RNA, r the observed anisotropy, rf and rb the anisotropy of free and bound RNA, and If and Ib the fluorescence intensity of free and bound RNA, respectively. Using KaleidaGraph (Synergy Software), dissociation constants were derived by fitting the binding isotherms to a 1:1 binding model of RNA and protein according to Equation (2) (2) where fb represents the fractional concentration of bound RNA, L the total concentration of labelled RNA, P the concentration of protein and KD the dissociation constant.

[1] = biological target: T1, influenza B polymerase initiating RNA synthesis at the vRNA promoter (vPol) (Influenza B virus, UniProt Q5V8X3+Q5V8Y6); settings: read-out: KM of primer, vPol, 0.5 mM NTPs, 0.15 μM template v3΄ 1–18, 0.25 μM polymerase, T = 24°C
[2] = biological target: influenza B polymerase initiating RNA synthesis at the cRNA promoter (cPol) (Influenza B virus, UniProt Q5V8Y6); assay: biochemical; assay type: biochemical, influenza B/Memphis/13/03
[3] = biological target: Cy3-labelled c3΄ RNA (18-mer); assay: FRET assay of RNA-RNA interaction with c3΄ RNA; assay type: binding; settings: FAM-labelled 5΄ RNA, T = 25°C
Experimental: (§1) RNA–RNA interactions were quantified by a simple FRET-assay. Briefly, ∼0.01 μM short 5΄ RNAs labelled at their 3΄ ends by FAM-Ex-5 were incubated at T = 25°C in 384 well plates (FIA plate black, 128.0/85 mm, medium binding; Greiner Bio-One GmbH, Austria) in binding buffer (50 mM HEPES/NaOH, 0.15 M NaCl, 10% (v/v) glycerol, 2 mM Tris(2-carboxyethyl)phosphine (TCEP), pH 7.4) with 3΄ RNAs labelled at their 5΄ end by Cy3 at the concentrations indicated. After attaining equilibrium (∼0.5 h), the FAM's fluorescence intensity was recorded as averaged technical triplicates (excitation / emission = 485/520 nm; 10 nm band width; CLARIOstar, BMG Labtech, Germany). The decreasing fluorescence intensity with increasing Cy3-labelled 3΄ RNA is plotted relative to its initial value as mean values of at least duplicate experiments with the standard deviation indicated. Mean values were then analysed according to Equation (2) (with P equaling the concentration of Cy3-labelled 3΄ RNA; curve fitting yielded L = 0.007 μM and 0.004 μM for FAM-Ex-5-labelled c5΄ and v5΄ nts 1–18, respectively), yielding the corresponding dissociation constants and error of the fitting routine stated. 0.2 μM FAM-Ex-5-labelled v5΄ nt 1–10 were used to study its weak interaction with either Cy3-labelled v3΄ nt 1–9 or v3΄ nt 1–18.

Cy3-labelled v3΄ nt 1–18 = assay: FRET assay of RNA-RNA interaction with v3΄ nt 1–18; assay type: binding; settings: FAM-labelled 5΄ RNA, T = 25°C
Experimental: as §1

[4] = biological target: T1, influenza B polymerase initiating RNA synthesis at the vRNA promoter (vPol); assay: biochemical; settings: IC50 (mM)
[5] = biological target: influenza B polymerase, vPol (c5' hook) (Influenza B virus, UniProt Q5V8Y6); assay: biochemical; set-up: species or system influenza B/Memphis/13/03
influenza polymerase = system: influenza polymerase; set-up: method as in PMID 8585725; settings: in vitro and cell culture experiments; cited from earlier work
[6] = 0.025 mM NTPs, capped RNA primed, T ∼ 21°C, t = 5 min
[7] = 0.25 mM NTPs, capped RNA primed, T ∼ 21°C, t = 5 min
[8] = 0.025 mM NTPs, capped RNA primed, T ∼ 21°C, t = 5 min, not duplicate, read-out: IC50 (mM), vPol (c5' hook)
[9] = 0.025 mM NTPs, capped RNA primed, T ∼ 21°C, t = 176 or 100 min, read-out: IC50 (mM), cPol
[10] = 0.25 mM NTPs, capped RNA primed, T ∼ 21°C, t = 15 or 10 min, read-out: IC50 (mM), cPol

5΄-UAUACCUCUGCUUCUGCU-3΄ (chemistry not given here) [v3', genomic vRNA 3΄ end, 18 nucleotides]
dissociation constant, polymerase + RNA (in words) (influenza B polymerase): low nanomolar range

5΄-m^7GpppAAUCUAUAAUAG-3΄ [capped RNA]
Km [1]: 0.027 ± 0.01 µM | Km ([2]; 0.5 mM NTPs, 0.15 μM template c3΄ 1–18, 0.25 μM polymerase, T = 24°C, read-out: KM (capped RNA), cPol): 0.12 ± 0.03 µM

5΄-pAGUAGUAACAAGAG-3΄ [non-capped RNA]
Km [1]: 1.1 ± 0.2 µM | Km ([1]; listed as v5′ 1-14): ~1 µM

5′-UACCCUCUUGUUACUACU-3′ (chemistry not given here) [c3', anti-genomic cRNA 3΄ end, 18 nucleotides]
dissociation constant, polymerase + RNA (in words) (influenza B polymerase): low nanomolar range

5′-pAGCAGAAGCAGAGGUAUA-3′ [c5']
Kd [3]: 0.0016 ± 0.0003 µM | Kd ([3]; listed as c5΄): ~0.0016 µM | dissociation constant, polymerase + RNA (in words) (influenza B polymerase): low nanomolar range | Kd (influenza B polymerase; fluorescently labelled RNA, binding buffer pH 7.4, read-out: KD, polymerase + promoter RNA): < 0.01 µM | Kd (Cy3-labelled v3΄ nt 1–18): 0.03 nM | Kd (Cy3-labelled v3΄ nt 1–18; listed as c5΄): ~0.03 nM

Nc1ncnc2c1ncn2[C@@H]1O[C@H](COP(=O)(O)OP(=O)(O)OP(=O)(O)O)[C@@H](O)[C@H]1F [2'F-2'dATP]
IC50 [4, 6]: 0.03 mM | IC50 [4, 7]: 0.3 mM | IC50 [5, 8]: 0.03 mM | IC50 [2, 9]: 0.7 mM | IC50 [2, 10]: 0.38 mM

Nc1ccn([C@@H]2O[C@H](COP(=O)(O)OP(=O)(O)OP(=O)(O)O)[C@@H](O)[C@H]2F)c(=O)n1 [2'F-2'dCTP]
IC50 [4]: 0.21 mM and 1.4 mM | IC50 [5]: 0.1 mM | IC50 ([2]; IC50 (mM), cPol): 1.5 mM and 2.1 mM

Nc1nc2c(ncn2[C@@H]2O[C@H](COP(=O)(O)OP(=O)(O)OP(=O)(O)O)[C@@H](O)[C@H]2F)c(=O)[nH]1 [2'F-2'dGTP]
mode of inhibition of influenza polymerase with respect to GTP (influenza polymerase): reversibly and competitively | IC50 [4, 6]: 0.02 mM | IC50 [4, 7]: 0.2 mM | IC50 [5, 8]: 0.01 mM | IC50 [2, 9]: 0.28 mM | IC50 [2, 10]: 0.43 mM

O=c1ccn([C@@H]2O[C@H](COP(=O)(O)OP(=O)(O)OP(=O)(O)O)[C@@H](O)[C@H]2F)c(=O)[nH]1 [2'F-2'dUTP]
IC50 [4]: 0.45 mM and 3.1 mM | IC50 [5]: 0.3 mM | IC50 ([2]; IC50 (mM), cPol): 1.1 mM and 1.8 mM
